Measurements taken from paper PMC11594916, “In Vitro Cell Model Investigation of Alpha-Synuclein Aggregate Morphology Using Spectroscopic Imaging” (International Journal of Molecular Sciences, 2024).

Target: T1, alpha-synuclein (αsyn) pre-formed fibrils (Homo sapiens, UniProt P37840)
T1 construct: gene SNCA; Full-length wildtype human αsyn, pre-formed amyloid fibrils (PFFs)
Test: fluorescence titration of h-FTAA with […] recombinant fibrils, simulated binding curve; lifetime imaging (FLIM)

Kd: < 100 nM
Structure (SMILES): O=C(O)Cc1cc(-c2ccc(-c3ccc(C(=O)O)s3)s2)sc1-c1ccc(-c2sc(-c3ccc(-c4ccc(C(=O)O)s4)s3)cc2CC(=O)O)s1 [h-FTAA]
